The text below walks through data of ChEMBL document CHEMBL6096657, “Exploring structure-directed immunogenic cytotoxicity of arginine-rich peptides for cytolysis-induced immunotherapy of cancer” (Bioorg Med Chem, 2024).

Broadly, the IC50 is the point on the concentration scale where inhibition reaches its midpoint.

The test system of series [1] is 4T1. Kind of series: Cytotoxicity against mouse 4T1 cells assessed as cell viability by MTT assay. Type of series: functional, cell-based.
For series [2], the system named is 4T1. Kind of series: Cytotoxicity against mouse 4T1 cells at 8 uM measured after 15 mins by MTT assay. Type of series: functional, cell-based. On the technique in general: Tetrazolium assays rely on reduction of a dye to a coloured formazan, in cell work by metabolically active cells.
In series [3] the test system is 4T1. The series is described as follows: Cytotoxicity against mouse 4T1 cells assessed as cell death rate at 8 uM measured after 1 hr by MTT assay. Type of series: functional.
Series [4] concerns 4T1. Kind of series: Cytotoxicity against mouse 4T1 cells assessed as cell death rate at 8 uM by PI staining based confocal microscopic analysis. The class given is functional.
Series [5] has as its system 4T1. The series is described as follows: Induction of morphological changes in mouse 4T1 cells at 8 uM by PI staining based confocal microscopic analysis. Type of series: functional, cell-based.
Series [6] deals with 4T1. The series is described as follows: Induction of ROS generation in mouse 4T1 cells 24 hrs by DCFDA-fluorescence based flow cytometry. Type of series: functional, cell-based.
In series [7] the test system is 4T1. Kind of series: Induction of apoptosis in mouse 4T1 cells assessed as increase in late necrotic cell death incubated for 24 hrs by Annexin V/FITC staining based flow cytometry analysis. Type of series: functional. In general terms: In flow cytometry, cells or beads pass a laser one at a time.
In series [8] the test system is 4T1. Kind of series: Induction of apoptosis in mouse 4T1 cells assessed as increase in caspase-3 activity measured at 30 mins. Type of series: functional, cell-based.
The test system of series [9] is 4T1. The series is described as follows: Induction of apoptosis in mouse 4T1 cells assessed as increase in caspase-3 activity measured at 60 mins. Type of series: functional, cell-based.
Series [10] relates to 4T1. The series is described as follows: Induction of necroptosis in mouse 4T1 cells assessed as increase in cell viability in presence of necrostatin-1 by MTT assay. The class given is functional, cell-based. The note with it: dose 0.625-30 µM.
Series [11] concerns 4T1. The series is described as follows: Induction of immunogenic cell death in mouse 4T1 cells assessed as ATP release at 4 to 32 uM measured after 2 hrs. Type of series: functional, cell-based. The conditions noted are these: dose 4-32 µM.
Series [12] deals with 4T1. The series is described as follows: Induction of immunogenic cell death in mouse 4T1 cells assessed as ATP release at 4 to 32 uM measured after 4 hrs. Type of series: functional, cell-based. The note with it: dose 4-32 µM.
The test system of series [13] is 4T1. Kind of series: Induction of immunogenic cell death in mouse 4T1 cells assessed as HMGB1 release at 4 to 32 uM measured after 2 hrs. The class given is functional, cell-based. The note with it: dose 4-32 µM.
For series [14], the system named is 4T1. Kind of series: Induction of immunogenic cell death in mouse 4T1 cells assessed as increase in CRT translocation to cell surface at 4 to 32 uM. Type of series: functional, cell-based. The conditions noted are these: dose 4-32 µM.
The subject of series [15] is 4T1. The series is described as follows: Induction of necrosis in mouse 4T1 cells cocultured with mouse BMDC cells at 12 uM incubated for 4 hrs by flow cytometry analysis. Type of series: functional, cell-based.
Series [16] concerns THP-1. The series is described as follows: Induction of M1 macrophage polarization in human THP-1 cells assessed as increase in IL-1beta level measured after 48 hrs. Type of series: functional, cell-based.
For series [17], the system named is 4T1. Kind of series: Antitumor activity against mouse 4T1 cells implanted in mouse assessed as reduction in tumor size. The class given is functional, cell-based.
In series [18] the test system is 4T1. Kind of series: Cytotoxicity against mouse 4T1 cells. The class given is functional, cell-based.
The nature of series [19]: Cytotoxicity against mouse BMDC cells. Type of series: toxicity, cell-based. The note with it: BMDC cells (bone marrow-derived dendritic cells).
A short description of series [20]: Cytotoxicity against mouse BMDM cells. The class given is toxicity, cell-based. The conditions noted are these: BMDM cells (bone marrow-derived macrophages).
Series [21] has as its system 4T1. The series is described as follows: Cytotoxicity against mouse 4T1 cells assessed as cell death rate at 4 uM measured after 15 mins by MTT assay. The class given is functional, cell-based.
For series [22], the system named is 4T1. The series is described as follows: Cytotoxicity against mouse 4T1 cells assessed as cell death rate at 4 uM measured after 2 hrs by MTT assay. Type of series: functional.
Series [23] deals with 4T1. The series is described as follows: Cytotoxicity against mouse 4T1 cells assessed as cell death rate at 10 uM by PI staining based confocal microscopic analysis. The class given is functional.
For series [24], the system named is 4T1. The series is described as follows: Induction of morphological changes in mouse 4T1 cells at 10 uM by PI staining based confocal microscopic analysis. The class given is functional, cell-based.
Series [25] concerns 4T1. The series is described as follows: Induction of apoptosis in mouse 4T1 cells assessed as early apoptotic cell incubated for 24 hrs by Annexin V/FITC staining based flow cytometry analysis. Type of series: functional.
Series [26] concerns 4T1. The series is described as follows: Induction of apoptosis in mouse 4T1 cells assessed as cell death in presence of Ac-DEVD-CHO. The class given is functional, cell-based.
Series [27] deals with 4T1. Kind of series: Induction of immunogenic cell death in mouse 4T1 cells assessed as HMGB1 release at 4 to 32 uM measured after 4 hrs. The conditions noted are these: dose 4-32 µM. The class given is functional, cell-based.
In series [28] the test system is 4T1. The series is described as follows: Induction of necrosis in mouse 4T1 cells cocultured with mouse BMDC cells at 15 uM incubated for 4 hrs by flow cytometry analysis. The class given is functional, cell-based.
The subject of series [29] is 4T1. Kind of series: Cytotoxicity against mouse 4T1 cells assessed as cell death rate at 4 uM measured at 15 mins by MTT assay relative to control. The class given is functional. The conditions noted are these: 0.25 h.
Series [30] has as its system 4T1. The series is described as follows: Cytotoxicity against mouse 4T1 cells assessed as cell death rate at 4 uM measured at 30 mins by MTT assay relative to control. The class given is functional. The note with it: 0.5 h.
The subject of series [31] is 4T1. Kind of series: Induction of morphological changes in mouse 4T1 cells at 4 uM by PI staining based confocal microscopic analysis. Type of series: functional, cell-based.
For series [32], the system named is 4T1. The series is described as follows: Induction of immunogenic cell death in mouse 4T1 cells assessed as ATP release at 2 to 16 uM measured after 2 hrs. Type of series: functional, cell-based. The note with it: dose 2-16 µM.
Series [33] concerns 4T1. Kind of series: Induction of immunogenic cell death in mouse 4T1 cells assessed as ATP release at 2 to 16 uM measured after 4 hrs. Type of series: functional, cell-based. The conditions noted are these: dose 2-16 µM.
The test system of series [34] is 4T1. The series is described as follows: Induction of immunogenic cell death in mouse 4T1 cells assessed as HMGB1 release at 2 to 16 uM measured after 2 hrs. Type of series: functional, cell-based. The conditions noted are these: dose 2-16 µM.
For series [35], the system named is 4T1. The series is described as follows: Induction of immunogenic cell death in mouse 4T1 cells assessed as increase in CRT translocation to cell surface at 2 to 16 uM. The class given is functional, cell-based. The note with it: dose 2-16 µM.
For series [36], the system named is 4T1. Kind of series: Induction of necrosis in mouse 4T1 cells cocultured with mouse BMDC cells at 6 uM incubated for 4 hrs by flow cytometry analysis. The class given is functional, cell-based.

Active and inactive are the calls of the source. No cut-off for these calls is given here. Where a SMILES comes first, the peptide text is derived from it. Bridges are numbered along the chain shown (N, C = ends).

As for `CC(=O)N[C@H]1CSSC[C@@H](C(=O)N[C@@H](CC(C)C)C(=O)N[C@@H](Cc2ccccc2)C(=O)N[C@@H](Cc2c[nH]c3ccccc23)C(=O)N[C@@H](Cc2ccccc2)C(N)=O)NC(=O)[C@H](CCCNC(=N)N)NC(=O)[C@H](CCCNC(=N)N)NC(=O)[C@H](CCCNC(=N)N)NC(=O)[C@H](CCCNC(=N)N)NC(=O)[C@H](CCCNC(=N)N)NC(=O)[C@H](CCCNC(=N)N)NC(=O)[C@H](CCCNC(=N)N)NC(=O)[C@H](CCCNC(=N)N)NC1=O` (Ac-CRRRRRRRRCLFWF-NH2; disulfide 1-10), the half-maximal inhibitory concentration (IC50) in [1] stood at 8.5 µM.
Turning to `CC(=O)N[C@@H](Cc1ccccc1)C(=O)N[C@@H](Cc1c[nH]c2ccccc12)C(=O)N[C@@H](Cc1ccccc1)C(=O)N[C@@H](CC(C)C)C(=O)N[C@H]1CSSC[C@@H](C(N)=O)NC(=O)[C@H](CCCNC(=N)N)NC(=O)[C@H](CCCNC(=N)N)NC(=O)[C@H](CCCNC(=N)N)NC(=O)[C@H](CCCNC(=N)N)NC(=O)[C@H](CCCNC(=N)N)NC(=O)[C@H](CCCNC(=N)N)NC(=O)[C@H](CCCNC(=N)N)NC(=O)[C@H](CCCNC(=N)N)NC1=O` (Ac-FWFLCRRRRRRRRC-NH2; disulfide 5-14), the IC50 in series [1] came out at 7.5 µM; in [18] it was 7.5 µM; in series [19], 7.8 µM; in [20], 10.3 µM. Further, the outcome in series [2], in series [4], in series [5], in series [6], in series [7] and in series [11] was Active. The result in series [12], in [13], in series [14], in series [15], in [16] and in [17] was Active. The values for the Activity in series [3] and in [10] were 50% and “Dose-dependent-effect”, respectively. In addition, the result in series [8] and in [9] was inactive.
`CC(=O)N[C@@H](CC(C)C)C(=O)N[C@@H](CC(C)C)C(=O)N[C@@H](CC(C)C)C(=O)N[C@@H](CC(C)C)C(=O)N[C@H]1CSSC[C@@H](C(N)=O)NC(=O)[C@H](CCCNC(=N)N)NC(=O)[C@H](CCCNC(=N)N)NC(=O)[C@H](CCCNC(=N)N)NC(=O)[C@H](CCCNC(=N)N)NC(=O)[C@H](CCCNC(=N)N)NC(=O)[C@H](CCCNC(=N)N)NC(=O)[C@H](CCCNC(=N)N)NC(=O)[C@H](CCCNC(=N)N)NC1=O` (Ac-LLLLCRRRRRRRRC-NH2; disulfide 5-14): in series [1], the IC50 was 9.3 µM.
For the molecule `CC(=O)N[C@@H](CCCNC(=N)N)C(=O)N[C@@H](CC(C)C)C(=O)N[C@@H](CC(C)C)C(=O)N[C@@H](CCCNC(=N)N)C(=O)N[C@@H](CC(C)C)C(=O)N[C@@H](CC(C)C)C(=O)N[C@@H](CCCNC(=N)N)C(=O)N[C@@H](CC(C)C)C(=O)N[C@@H](CCCNC(=N)N)C(=O)N[C@@H](CCCNC(=N)N)C(=O)N[C@@H](CC(C)C)C(=O)N[C@@H](CC(C)C)C(=O)N[C@@H](CCCNC(=N)N)C(=O)N[C@@H](CC(C)C)C(N)=O` (Ac-RLLRLLRLRRLLRL-NH2), the concentration for half-maximal inhibition (IC50) in series [1] is 9.3 µM. Also, the outcome in series [21], in [23], in series [6], in [25], in series [8] and in [9] was Active. For the same molecule, the result in series [26], in series [11], in series [12], in series [13], in series [27] and in series [28] was Active. Also, in [22], the Activity worked out at 50%. In addition, in series [24], the outcome was inactive.
On to `CC(=O)N[C@@H](CCCNC(=N)N)C(=O)N[C@@H](CC(C)C)C(=O)N[C@@H](CC(C)C)C(=O)N[C@@H](CCCNC(=N)N)C(=O)N[C@@H](CC(C)C)C(=O)N[C@@H](CC(C)C)C(=O)N[C@@H](CCCNC(=N)N)C(=O)N[C@@H](CCCNC(=N)N)C(=O)N[C@@H](CC(C)C)C(=O)N[C@@H](CC(C)C)C(=O)N[C@@H](CCCNC(=N)N)C(=O)N[C@@H](CC(C)C)C(=O)N[C@@H](CC(C)C)C(=O)N[C@@H](CCCNC(=N)N)C(N)=O` (Ac-RLLRLLRRLLRLLR-NH2), for which the half-inhibitory concentration (IC50) in series [1] was determined as 3.3 µM. For the same molecule, the Activity in series [29] worked out at 30%; in series [30], 50%. In addition, the outcome in [31], in series [6], in series [8] and in series [9] was inactive. For the same molecule, the outcome in [32], in series [33], in series [34], in [35] and in series [36] was Active.
For the molecule `N=C(N)NCCC[C@@H]1NC(=O)[C@H](CCCNC(=N)N)NC(=O)[C@H](CCCNC(=N)N)NC(=O)[C@H](CCCNC(=N)N)NC(=O)[C@H](CCCNC(=N)N)NC(=O)[C@H](CCCNC(=N)N)NC(=O)[C@H](CCCNC(=N)N)NC(=O)[C@H](CCCNC(=N)N)NC(=O)[C@@H](NC(=O)[C@H](Cc2ccccc2)NC(=O)[C@H](Cc2ccccc2)NC(=O)[C@H](Cc2ccccc2)NC(=O)[C@@H](N)Cc2ccccc2)CSSC[C@@H](C(=O)O)NC1=O` (H-FFFFCRRRRRRRRC-OH; disulfide 5-14), the IC50 in [1] worked out at 8.8 µM.
